As usually defined, the IC50 is the midpoint of a concentration-inhibition curve.

Experimental findings from ChEMBL document CHEMBL3045354, “Synthesis, molecular modeling, and biological evaluation of 1,2,4-triazole derivatives containing pyridine as potential anti-tumor agents” (Med Chem Res, 2013) are described below.

Activity calls are given as the source filed them. No cut-off for these calls is given here.

Assay [1] has as its system HCT-116. The assay can be described thus: Antiproliferative activity against Homo sapiens (human) HCT116 cells assessed as growth inhibition after 48 hr by MTT assay. As to conditions: HCT-116, 48 h.
In the next assay the test system is HepG2. The assay can be described thus: Antiproliferative activity against Homo sapiens (human) HepG2 cells assessed as growth inhibition after 48 hr by MTT assay. As to conditions: HepG2, 48 h.
A further assay relates to MCF7. Kind of assay: Antiproliferative activity against Homo sapiens (human) MCF7 cells assessed as growth inhibition after 48 hr by MTT assay. The conditions noted are these: MCF7, 48 h.
The subject of assay [2] is HCT-116. The assay can be described thus: Induction of apoptosis in Homo sapiens (human) HCT116 cells assessed as viable cells at 8 uM after 24 hr by Annexin V-FITC/PI staining based flow cytometry (reference value: 92.80%). In kind it is functional. The conditions noted are these: HCT-116, 24 h, read-out: Activity.
The subject of assay [3] is HCT-116. The assay can be described thus: Induction of apoptosis in Homo sapiens (human) HCT116 cells assessed as late apoptotic cells at 0.5 uM after 24 hr by Annexin V-FITC/PI staining based flow cytometry (reference value: 2.87%). In kind it is functional. A general note: A flow cytometer gives signals particle by particle.
Assay [4] concerns HCT-116. The assay can be described thus: Induction of apoptosis in Homo sapiens (human) HCT116 cells assessed as early apoptotic cells at 0.5 uM after 24 hr by Annexin V-FITC/PI staining based flow cytometry (reference value: 3.73%). In kind it is functional.
The test system of assay [5] is HCT-116. Kind of assay: Induction of apoptosis in Homo sapiens (human) HCT116 cells assessed as late apoptotic cells at 2 uM after 24 hr by Annexin V-FITC/PI staining based flow cytometry (reference value: 2.87%). The class given is functional.
Assay [6] relates to HCT-116. The assay can be described thus: Induction of apoptosis in Homo sapiens (human) HCT116 cells assessed as early apoptotic cells at 2 uM after 24 hr by Annexin V-FITC/PI staining based flow cytometry (reference value: 3.73%). The class given is functional.
The test system of assay [7] is HCT-116. Kind of assay: Induction of apoptosis in Homo sapiens (human) HCT116 cells assessed as necrotic cells at 8 uM after 24 hr by Annexin V-FITC/PI staining based flow cytometry (reference value: 0.60%). The class given is functional.
For assay [8], the system named is HCT-116. Kind of assay: Induction of apoptosis in Homo sapiens (human) HCT116 cells assessed as increase in cleaved caspase-3 level at 0.5 to 8 uM by Western blot analysis. The class given is functional, cell-based. (In western blotting, separated proteins are transferred to a membrane and probed.)
Assay [9] deals with HCT-116. The assay can be described thus: Induction of apoptosis in Homo sapiens (human) HCT116 cells assessed as viable cells at 2 uM after 24 hr by Annexin V-FITC/PI staining based flow cytometry (reference value: 92.80%). In kind it is functional. The conditions noted are these: HCT-116, 24 h, read-out: Activity.
Assay [10] concerns HCT-116. Kind of assay: Induction of apoptosis in Homo sapiens (human) HCT116 cells assessed as early apoptotic cells at 8 uM after 24 hr by Annexin V-FITC/PI staining based flow cytometry (reference value: 3.73%). In kind it is functional.
Assay [11] has as its system HCT-116. Kind of assay: Induction of apoptosis in Homo sapiens (human) HCT116 cells assessed as late apoptotic cells at 8 uM after 24 hr by Annexin V-FITC/PI staining based flow cytometry (reference value: 2.87%). In kind it is functional.
The test system of assay [12] is HCT-116. Kind of assay: Induction of apoptosis in Homo sapiens (human) HCT116 cells assessed as necrotic cells at 2 uM after 24 hr by Annexin V-FITC/PI staining based flow cytometry (reference value: 0.60%). In kind it is functional.
The test system of assay [13] is HCT-116. The assay can be described thus: Induction of apoptosis in Homo sapiens (human) HCT116 cells assessed as viable cells at 0.5 uM after 24 hr by Annexin V-FITC/PI staining based flow cytometry (reference value: 92.80%). As to conditions: HCT-116, 24 h, read-out: Activity. The class given is functional.
The subject of assay [14] is HCT-116. The assay can be described thus: Induction of apoptosis in Homo sapiens (human) HCT116 cells assessed as PARP cleavage at 0.5 to 8 uM by Western blot analysis. The class given is functional, cell-based.
For assay [15], the system named is HCT-116. Kind of assay: Induction of apoptosis in Homo sapiens (human) HCT116 cells assessed as necrotic cells at 0.5 uM after 24 hr by Annexin V-FITC/PI staining based flow cytometry (reference value: 0.60%). In kind it is functional.

Turning to `O=C(CSc1nnc(-c2ccncc2)n1-c1ccccc1)N/N=C/c1ccc(O)c(O)c1`, the IC50 in the assay with HCT-116 [1] was found to be 14.7 µM; in the assay with HepG2, 16.9 µM; in the assay on MCF7 it was 19.7 µM.

Regarding `Fc1ccc(CSc2nnc(-c3ccncc3)n2-c2ccccc2)cc1`, the IC50 in the assay on HCT-116 [1] was 12.8 µM; with HepG2, 15.6 µM; in the assay with MCF7 it was 21.1 µM.

`O=C(CSc1nnc(-c2ccncc2)n1-c1ccccc1)N/N=C/c1ccccc1F`: the IC50 amounted to 18 µM in the assay on HCT-116 [1], 15.2 µM with HepG2 and 22.4 µM in the assay on MCF7.

`O=C(CSc1nnc(-c2ccncc2)n1-c1ccccc1)N/N=C/c1ccc(O)cc1`: the IC50 in the assay with HCT-116 [1], with HepG2 and in the assay on MCF7 was more than 50 µM throughout.

On to `O=C(CSc1nnc(-c2ccncc2)n1-c1ccccc1)N/N=C/c1cc(Br)ccc1O`, for which the figures for the IC50 in the assay with HCT-116 [1], in the assay on HepG2 and with MCF7 were 1.99 µM, 4.39 µM and 6.46 µM, respectively. Besides, the viability at 8 µM with HCT-116 [2] was 31.6%. Also, the Activity in the assay with HCT-116 [3] is 3.27%; with HCT-116 [4], 5.99%; in the assay with HCT-116 [5] it was 12.47%; with HCT-116 [6] it was 18.85%; in the assay with HCT-116 [7], 3.04%; in the assay on HCT-116 [10] it was 27.35%. For the same compound, the Activity in the assay on HCT-116 [11] turned out to be 38.01%; in the assay on HCT-116 [12], 2.44%; in the assay with HCT-116 [15] it was 0.72%. Moreover, the outcome with HCT-116 [8] and in the assay with HCT-116 [14] was Active. In addition, the viability at 2 µM with HCT-116 [9] is 86.2%. Further, in the assay on HCT-116 [13], the viability at 0.5 µM was 90%.

For the compound `Clc1ccc(CSc2nnc(-c3ccncc3)n2-c2ccccc2)cc1`, the half-inhibitory concentration (IC50) was found to be 10.7 µM with HCT-116 [1], 16.9 µM in the assay with HepG2 and 13.3 µM in the assay on MCF7.

Take `O=[N+]([O-])c1ccc(CSc2nnc(-c3ccncc3)n2-c2ccccc2)cc1`: the IC50 is 23.8 µM with HCT-116 [1], more than 50 µM in the assay on HepG2 and 22.8 µM with MCF7.

As for `Fc1ccc(CSc2nnc(-c3ccncc3)n2-c2ccccc2)c(F)c1`, the values for the IC50 in the assay on HCT-116 [1], with HepG2 and with MCF7 were 11.4 µM, 10.2 µM and 14.1 µM, respectively.

As to `O=[N+]([O-])c1ccccc1CSc1nnc(-c2ccncc2)n1-c1ccccc1`, the IC50 in the assay on HCT-116 [1], with HepG2 and in the assay on MCF7 was more than 50 µM in each case.

Turning to `Clc1cccc(CSc2nnc(-c3ccncc3)n2-c2ccccc2)c1`, the concentration for half-maximal inhibition (IC50) in the assay with HCT-116 [1] was determined as 9.82 µM; in the assay on HepG2 it was 11.2 µM; with MCF7 it was 10.5 µM.

As to `c1ccc(CSc2nnc(-c3ccncc3)n2-c2ccccc2)cc1`, the IC50 in the assay with HCT-116 [1] was found to be 16.9 µM; in the assay with HepG2, 12.9 µM; with MCF7 it was 22.4 µM.

Take `Brc1ccccc1CSc1nnc(-c2ccncc2)n1-c1ccccc1`: the values for the IC50 in the assay on HCT-116 [1], with HepG2 and in the assay with MCF7 were 20.2 µM, 17.1 µM and 16.1 µM, respectively.

For `Brc1cccc(CSc2nnc(-c3ccncc3)n2-c2ccccc2)c1`, the 50% inhibitory concentration (IC50) with HCT-116 [1] was 8.17 µM; in the assay on HepG2 it was 7.04 µM; with MCF7, 10 µM. The viability at 8 µM with HCT-116 [2] was determined as 50.4%. Besides, the Activity in the assay with HCT-116 [3] is 3.24%; in the assay on HCT-116 [4] it was 8.24%; in the assay on HCT-116 [5], 9.25%; with HCT-116 [6], 11.39%; with HCT-116 [7], 5.59%; in the assay on HCT-116 [10] it was 12.3%. Moreover, the Activity in the assay with HCT-116 [11] is listed as 31.69%; in the assay on HCT-116 [12], 1.08%; in the assay with HCT-116 [15], 0.28%. Moreover, the outcome in the assay with HCT-116 [8] and in the assay with HCT-116 [14] was Active. Further, in the assay with HCT-116 [9], the viability at 2 µM was 78.3%. The viability at 0.5 µM with HCT-116 [13] turned out to be 88.2%.

For `O=C(CSc1nnc(-c2ccncc2)n1-c1ccccc1)N/N=C/c1ccc(F)cc1`, the IC50 with HCT-116 [1] was found to be 7.04 µM; in the assay with HepG2, 9.33 µM; in the assay on MCF7 it was 12.3 µM.

For the compound `O=C(CSc1nnc(-c2ccncc2)n1-c1ccccc1)N/N=C/c1ccc([N+](=O)[O-])cc1`, the values for the IC50 in the assay with HCT-116 [1], in the assay with HepG2 and in the assay with MCF7 were 10.2 µM, 15.9 µM and 15.3 µM, respectively.

With `Clc1ccccc1CSc1nnc(-c2ccncc2)n1-c1ccccc1`, the IC50 in the assay with HCT-116 [1] stood at 13.8 µM; in the assay with HepG2, 15.7 µM; in the assay on MCF7, 18.1 µM.

Consider `Fc1ccccc1CSc1nnc(-c2ccncc2)n1-c1ccccc1`, for which the half-inhibitory concentration (IC50) was 12 µM in the assay on HCT-116 [1], more than 50 µM in the assay with HepG2 and more than 50 µM with MCF7.

In the case of `O=C(CSc1nnc(-c2ccncc2)n1-c1ccccc1)N/N=C/C=C/c1ccccc1`, the IC50 stood at 6.15 µM in the assay on HCT-116 [1], 8.28 µM in the assay on HepG2 and 11.2 µM in the assay on MCF7.

Consider `Fc1cccc(F)c1CSc1nnc(-c2ccncc2)n1-c1ccccc1`, for which the concentration for half-maximal inhibition (IC50) with HCT-116 [1] was 22.1 µM; in the assay with HepG2, more than 50 µM; in the assay with MCF7, more than 50 µM.

For the compound `COc1ccc(/C=N/NC(=O)CSc2nnc(-c3ccncc3)n2-c2ccccc2)cc1`, the IC50 in the assay on HCT-116 [1] worked out at 19.2 µM; in the assay on HepG2, 27.1 µM; with MCF7, 23.7 µM.

Turning to `O=C(CSc1nnc(-c2ccncc2)n1-c1ccccc1)N/N=C/c1ccccc1`, the IC50 in the assay on HCT-116 [1] is 14.7 µM; with HepG2, 18.6 µM; in the assay with MCF7 it was 23.6 µM.

As for `O=C(CSc1nnc(-c2ccncc2)n1-c1ccccc1)N/N=C/c1ccc(Cl)cc1`, the IC50 in the assay on HCT-116 [1] stood at 5.74 µM; in the assay on HepG2 it was 11 µM; with MCF7, 9.93 µM.

Consider `O=C(CSc1nnc(-c2ccncc2)n1-c1ccccc1)N/N=C/c1ccc(Br)cc1`, for which the IC50 came out at 4.5 µM with HCT-116 [1], 5.99 µM with HepG2 and 7.04 µM with MCF7.

In the case of `O=[N+]([O-])c1cccc(CSc2nnc(-c3ccncc3)n2-c2ccccc2)c1`, the concentration for half-maximal inhibition (IC50) with HCT-116 [1] is 19.8 µM; with HepG2, 22 µM; in the assay with MCF7, 18.3 µM.

Take `O=C(CSc1nnc(-c2ccncc2)n1-c1ccccc1)N/N=C/c1cccc(F)c1`: the figures for the IC50 with HCT-116 [1], in the assay on HepG2 and in the assay with MCF7 were more than 50 µM, 24.4 µM and more than 50 µM, respectively.

Consider `Brc1ccc(CSc2nnc(-c3ccncc3)n2-c2ccccc2)cc1`, for which the half-inhibitory concentration (IC50) in the assay on HCT-116 [1] worked out at 11.1 µM; in the assay on HepG2 it was 12.9 µM; with MCF7 it was 12.6 µM.

Take `O=C(CSc1nnc(-c2ccncc2)n1-c1ccccc1)N/N=C/c1ccccc1O`: the IC50 came to 7.06 µM with HCT-116 [1], 11.3 µM in the assay with HepG2 and 10 µM in the assay on MCF7.

Regarding `O=C(CSc1nnc(-c2ccncc2)n1-c1ccccc1)N/N=C/c1cc(Br)cc(Br)c1O`, the figures for the concentration for half-maximal inhibition (IC50) in the assay with HCT-116 [1], with HepG2 and in the assay on MCF7 were 4.5 µM, 7.59 µM and 8.44 µM, respectively.
